Measurements as given in ChEMBL document CHEMBL1781926, “Synthesis of 1-naphtylpiperazine derivatives as serotoninergic ligands and their evaluation as antiproliferative agents” (Eur J Med Chem, 2011).
Active and inactive are the calls of the source. The calls are words filed in the database; no cut-off is given here.

How the values were obtained:
[1] = system: PC-3; experiment: Cell cycle arrest in human PC3 cells assessed as accumulation at G1 phase at 2 uM after 48 hrs using propidium iodide staining by flow cytometry (reference value: 54.14 %); type: functional
[2] = system: PC-3; experiment: Cell cycle arrest in human PC3 cells assessed as accumulation at G2 phase at 2 uM after 72 hrs using propidium iodide staining by flow cytometry (reference value: 20.18 %); type: functional
[3] = system: PC-3; experiment: Cell cycle arrest in human PC3 cells assessed as accumulation at S phase at 2 uM after 72 hrs using propidium iodide staining by flow cytometry (reference value: 37.73 %); type: functional
[4] = system: PC-3; experiment: Cell cycle arrest in human PC3 cells assessed as accumulation at S phase at 2 uM after 24 hrs using propidium iodide staining by flow cytometry (reference value: 34.84 %); type: functional
[5] = system: PC-3; experiment: Induction of apoptosis in human PC3 cells at 2 uM after 48 hrs using propidium iodide staining by flow cytometry (reference value: 0.84 %); type: functional
[6] = system: PC-3; experiment: Cell cycle arrest in human PC3 cells assessed as accumulation at G2 phase at 2 uM after 48 hrs using propidium iodide staining by flow cytometry (reference value: 13.36 %); type: functional
[7] = system: PC-3; experiment: Inhibition of serotonin-induced MAPK phosphorylation in human PC3 cells at 2 uM after 48 hrs by Western blotting; type: cell-based
[8] = system: PC-3; experiment: Induction of apoptosis human PC3 cells assessed as externalization of phosphatidylserine on the outer layer of plasma membrane at 1 uM after 24 to 48 hrs using Annexin-V-FITC staining by flow cytometry; type: functional, cell-based
[9] = system: PC-3; experiment: Cell cycle arrest in human PC3 cells assessed as accumulation at S phase at 2 uM after 48 hrs using propidium iodide staining by flow cytometry (reference value: 38.16 %); type: functional
[10] = system: PC-3; experiment: Cell cycle arrest in human PC3 cells assessed as accumulation at G1 phase at 2 uM after 24 hrs using propidium iodide staining by flow cytometry (reference value: 46.97 %); type: functional
[11] = system: PC-3; experiment: Cell cycle arrest in human PC3 cells assessed as accumulation at G1 phase at 2 uM after 72 hrs using propidium iodide staining by flow cytometry (reference value: 42.19 %); type: functional
[12] = system: PC-3; experiment: Induction of apoptosis in human PC3 cells at 2 uM after 24 hrs using propidium iodide staining by flow cytometry (reference value: 1.27 %); type: functional
[13] = system: PC-3; experiment: Cell cycle arrest in human PC3 cells assessed as accumulation at G2 phase at 2 uM after 24 hrs using propidium iodide staining by flow cytometry (reference value: 18.19 %); type: functional
[14] = system: PC-3; experiment: Induction of apoptosis in human PC3 cells at 2 uM after 72 hrs using propidium iodide staining by flow cytometry (reference value: 1.79 %); type: functional
[15] = molecular target: RAC-alpha serine/threonine-protein kinase (Homo sapiens) (UniProt P31749); experiment: Inhibition of serotonin-induced AKT phosphorylation in human PC3 cells at 2 uM after 48 hrs by Western blotting; type: cell-based; conditions: PC-3
Chain of RAC-alpha serine/threonine-protein kinase (Homo sapiens) (P31749 whole entry): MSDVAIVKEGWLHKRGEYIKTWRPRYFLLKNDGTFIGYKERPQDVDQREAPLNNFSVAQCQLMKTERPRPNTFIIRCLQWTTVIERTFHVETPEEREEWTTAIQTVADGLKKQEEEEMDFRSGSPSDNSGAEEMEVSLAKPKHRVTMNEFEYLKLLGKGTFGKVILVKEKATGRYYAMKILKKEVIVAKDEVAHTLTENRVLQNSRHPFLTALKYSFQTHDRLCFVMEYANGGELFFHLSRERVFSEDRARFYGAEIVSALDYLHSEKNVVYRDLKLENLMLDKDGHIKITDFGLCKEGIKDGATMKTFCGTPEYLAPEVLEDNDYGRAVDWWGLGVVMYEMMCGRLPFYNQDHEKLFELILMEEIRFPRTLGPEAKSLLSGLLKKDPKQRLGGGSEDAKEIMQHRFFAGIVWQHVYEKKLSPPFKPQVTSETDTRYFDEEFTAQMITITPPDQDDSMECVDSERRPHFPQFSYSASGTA

For `CC[C@@]1(O)C(=O)OCc2c1cc1n(c2=O)Cc2cc3c(CN(C)C)c(O)ccc3nc2-1` [TOPOTECAN], the Activity [1] was 19.17%, the Activity [2] was 36.31% and the Activity [3] was 63.69%. The Activity [4] was 33.91%, the Activity [5] was 16.32% and the Activity [6] was 19.07%. For the same compound, the inhibition [7] was “inactive”, the Activity [8] was “Active” and the Activity [9] was 61.76%. For the same compound, the Activity [10] was 37.23%, the Activity [11] was 0% and the Activity [12] was 5.43%. For the same compound, the Activity [13] was 28.86%, the Activity [14] was 8.14% and the inhibition [15] was “Active”.
